Test results: patent USRE48461E1, “Modulation of androgen receptor expression” (Ionis Pharmaceuticals, Inc., priority 2012, dated 2021)

Columns and labels:
Format in all cases: cell-based, human
[1] = test system: TMPRSS2 mRNA; assay: TMPRSS2 expression in C4-2 cells; details: 48 hrs; for Percent inhibition of TMPRSS2 expression: C4-2 cells, CSS + DHT medium
Procedure: Cells were plated at 1,000 cells per well. […] After an incubation period of 48 hrs, RNA levels of AR, PSA and TMPRSS2 were measured.
Cells were plated at 2,000 cells per well and cultured in CSS media with 1 nM DHT. […] After an incubation period of 48 hrs, RNA levels of AR, PSA and TMPRSS2 were measured.

[2] = test system: 22RV1 cells; assay: 22RV1 cell proliferation, ASO in combination with MDV3100 (Example 22); details: for Proliferation (% untreated control) in 22RV1 without MDV-3100: RNAiMAX, 3 days
Procedure, shortened: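 Cells seeded at 2,000 per well in 5% CSS medium for 48 h, then treated for 3 days. Proliferation read with a tetrazolium (CellTiter 96 AQueous One) kit and given as percent inhibition relative to untreated cells.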

[3] = test system: TMPRSS2 mRNA; assay: TMPRSS2 expression in 22RV1 cells; details: RNAiMax, 48 hrs
Procedure, shortened: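 In 22RV1 cells, full-length AR, AR-V7, PSA and TMPRSS2 RNA measured after 48 h compound incubation. Complete-medium format used 1,000 cells/well; CSS+DHT format used 2,000 cells/well cultured 16 h in CSS medium, with 1 nM DHT added after 4 h.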

[4] = test system: 22RV1 cells; assay: 22RV1 cell proliferation with/without DHT (MTT); details: 5 days; for Percent inhibition of 22RV1 cell proliferation: RNAiMAX
Procedure: 22RV1cells were plated at 1,500 cells per well. […] Separate sets of cells, also treated with each of the antisense oligonucleotides, were treated with DHT added on day 1 at a final concentration of 1 nM. After a treatment period of 5 days, the proliferative ability of the cancer cells was measured using the standard MTT assay. Results are presented in Table 69 as percent inhibition of proliferation, relative to non-treated cells.

[5] = test system: PSA mRNA; assay: PSA expression in C4-2B cells (Example 30); details: 48 hrs
Procedure, shortened: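 C4-2B cells were plated at 1,000 cells per well in complete medium, or at 2,000 cells per well in CSS medium with 1 nM DHT. ISIS 549148 served as the negative control. AR, PSA and TMPRSS2 RNA levels were measured after 48 hrs.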

[6] = test system: TMPRSS2 mRNA; assay: TMPRSS2 expression in LNCaP cells (complete, CSS+DHT medium); details: for Percent inhibition of TMPRSS2 expression in LNCaP cells cultured in CSS + DHT medium: CSS + DHT (1 nM) medium, 48 hrs; for Percent inhibition of TMPRSS2 expression in LNCaP cells cultured in complete medium: 48 hours
Procedure, shortened: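 LNCaP cells treated with antisense oligonucleotides, ISIS 549148 as negative control; AR, PSA and TMPRSS2 RNA measured after 48 h. Complete medium used 1,000 cells/well; stripped-serum condition used 2,000 cells/well in phenol red-free RPMI with 5% charcoal-stripped serum, with 1 nM DHT (final) added 4 h after treatment.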

## TGATTTAATGGTTGCA [ISIS 569236] (cEt/MOE gapmer chemistry, further chemistry not given here) [targets intron 1]
[1]; 0.04 μM
  Percent inhibition of TMPRSS2 expression: 0%
  Percent inhibition of TMPRSS2 expression in C4-2 cells cultured in complete medium: 17%
[1]; 0.2 μM
  Percent inhibition of TMPRSS2 expression: 11%
  Percent inhibition of TMPRSS2 expression in C4-2 cells cultured in complete medium: 54%
[1]; 1 μM
  Percent inhibition of TMPRSS2 expression: 61%
  Percent inhibition of TMPRSS2 expression in C4-2 cells cultured in complete medium: 67%
[1]; 5.0 μM
  Percent inhibition of TMPRSS2 expression: 67%
  Percent inhibition of TMPRSS2 expression in C4-2 cells cultured in complete medium: 67%
[2]; 22RV1 cells
  synergy with MDV3100: synergistic with MDV3100
[2]; 22RV1 cells, ASO alone at 1.0 μM
  inhibited cell proliferation, ASO alone: 17%
[2]; 22RV1 cells, ISIS 569236 (1.0 μM as printed) in combination with 1.0 μM MDV3100
  cell proliferation inhibited, combination: 30%
[2]; ASO dose 0.4 nM + 0.04 μM MDV-3100
  Proliferation (% untreated control) in 22RV1 cells with 0.04 μM MDV-3100: 83 % untreated control
[2]; ASO dose 0.4 nM + 0.2 μM MDV-3100
  Proliferation (% untreated control) in 22RV1 cells with 0.2 μM MDV-3100: 93 % untreated control
[2]; ASO dose 0.4 nM + 1.0 μM MDV-3100
  Proliferation (% untreated control) in 22RV1 cells with 1.0 μM MDV-3100: 79 % untreated control
[2]; ASO dose 0.4 nM + 5.0 μM MDV-3100
  Proliferation (% untreated control) in 22RV1 cells with 5.0 μM MDV-3100: 82 % untreated control
[2]; ASO dose 0.4 nM
  Proliferation (% untreated control) in 22RV1 without MDV-3100: 97 % untreated control
[2]; ASO dose 1.34 nM + 0.04 μM MDV-3100
  Proliferation (% untreated control) in 22RV1 cells with 0.04 μM MDV-3100: 70 % untreated control
[2]; ASO dose 1.34 nM + 0.2 μM MDV-3100
  Proliferation (% untreated control) in 22RV1 cells with 0.2 μM MDV-3100: 77 % untreated control
[2]; ASO dose 1.34 nM + 1.0 μM MDV-3100
  Proliferation (% untreated control) in 22RV1 cells with 1.0 μM MDV-3100: 70 % untreated control
[2]; ASO dose 1.34 nM + 5.0 μM MDV-3100
  Proliferation (% untreated control) in 22RV1 cells with 5.0 μM MDV-3100: 72 % untreated control
[2]; ASO dose 1.34 nM
  Proliferation (% untreated control) in 22RV1 without MDV-3100: 83 % untreated control
[2]; ASO dose 4.0 nM + 0.04 μM MDV-3100
  Proliferation (% untreated control) in 22RV1 cells with 0.04 μM MDV-3100: 61 % untreated control
[2]; ASO dose 4.0 nM + 0.2 μM MDV-3100
  Proliferation (% untreated control) in 22RV1 cells with 0.2 μM MDV-3100: 60 % untreated control
[2]; ASO dose 4.0 nM + 1.0 μM MDV-3100
  Proliferation (% untreated control) in 22RV1 cells with 1.0 μM MDV-3100: 52 % untreated control
[2]; ASO dose 4.0 nM + 5.0 μM MDV-3100
  Proliferation (% untreated control) in 22RV1 cells with 5.0 μM MDV-3100: 52 % untreated control
[2]; ASO dose 4.0 nM
  Proliferation (% untreated control) in 22RV1 without MDV-3100: 69 % untreated control
[2]; ASO dose 13.4 nM + 0.04 μM MDV-3100
  Proliferation (% untreated control) in 22RV1 cells with 0.04 μM MDV-3100: 24 % untreated control
[2]; ASO dose 13.4 nM + 0.2 μM MDV-3100
  Proliferation (% untreated control) in 22RV1 cells with 0.2 μM MDV-3100: 20 % untreated control
[2]; ASO dose 13.4 nM + 1.0 μM MDV-3100
  Proliferation (% untreated control) in 22RV1 cells with 1.0 μM MDV-3100: 18 % untreated control
[2]; ASO dose 13.4 nM + 5.0 μM MDV-3100
  Proliferation (% untreated control) in 22RV1 cells with 5.0 μM MDV-3100: 24 % untreated control
[2]; ASO dose 13.4 nM
  Proliferation (% untreated control) in 22RV1 without MDV-3100: 37 % untreated control
[3]; CSS + DHT medium, 1.34 nM
  Percent inhibition of TMPRSS2 expression: 27%
[3]; CSS + DHT medium, 4.0 nM
  Percent inhibition of TMPRSS2 expression: 50%
[3]; CSS + DHT medium, 13.4 nM
  Percent inhibition of TMPRSS2 expression: 75%
[3]; complete medium, 1.34 nM
  Percent inhibition of TMPRSS2 expression: 0%
[3]; complete medium, 4.0 nM
  Percent inhibition of TMPRSS2 expression: 13%
[3]; complete medium, 13.4 nM
  Percent inhibition of TMPRSS2 expression: 21%
[3]; complete medium, 40 nM
  Percent inhibition of TMPRSS2 expression: 36%
[4]; +DHT (1 nM), ASO 1.34 nM
  Percent inhibition of 22RV1 cell proliferation: 0%
[4]; +DHT (1 nM), ASO 4.0 nM
  Percent inhibition of 22RV1 cell proliferation: 6%
[4]; +DHT (1 nM), ASO 13.4 nM
  Percent inhibition of 22RV1 cell proliferation: 32%
[4]; +DHT (1 nM), ASO 40.0 nM
  Percent inhibition of 22RV1 cell proliferation: 56%
[4]; with or without 1 nM DHT
  22RV1 cell proliferation: significantly inhibited prostate cancer cell proliferation even in the presence of AR activator, DHT, compared to the control
[4]; −DHT, ASO 1.34 nM
  Percent inhibition of 22RV1 cell proliferation: 0%
[4]; −DHT, ASO 4.0 nM
  Percent inhibition of 22RV1 cell proliferation: 18%
[4]; −DHT, ASO 13.4 nM
  Percent inhibition of 22RV1 cell proliferation: 47%
[4]; −DHT, ASO 40.0 nM
  Percent inhibition of 22RV1 cell proliferation: 64%
[5]; CSS + DHT medium, 0.04 μM
  Percent inhibition of PSA expression: 0%
[5]; CSS + DHT medium, 0.2 μM
  Percent inhibition of PSA expression: 5%
[5]; CSS + DHT medium, 1 μM
  Percent inhibition of PSA expression: 33%
[5]; CSS + DHT medium, 5.0 μM
  Percent inhibition of PSA expression: 46%
[5]; complete medium, 0.04 μM
  Percent inhibition of PSA expression: 30%
[5]; complete medium, 0.2 μM
  Percent inhibition of PSA expression: 72%
[5]; complete medium, 1 μM
  Percent inhibition of PSA expression: 81%
[5]; complete medium, 5.0 μM
  Percent inhibition of PSA expression: 89%
[6]; 0.04 μM
  Percent inhibition of TMPRSS2 expression in LNCaP cells cultured in CSS + DHT medium: 6%
  Percent inhibition of TMPRSS2 expression in LNCaP cells cultured in complete medium: 0%
[6]; 0.2 μM
  Percent inhibition of TMPRSS2 expression in LNCaP cells cultured in CSS + DHT medium: 8%
  Percent inhibition of TMPRSS2 expression in LNCaP cells cultured in complete medium: 5%
[6]; 1 μM
  Percent inhibition of TMPRSS2 expression in LNCaP cells cultured in CSS + DHT medium: 40%
  Percent inhibition of TMPRSS2 expression in LNCaP cells cultured in complete medium: 40%
[6]; 5.0 μM
  Percent inhibition of TMPRSS2 expression in LNCaP cells cultured in CSS + DHT medium: 50%
  Percent inhibition of TMPRSS2 expression in LNCaP cells cultured in complete medium: 48%
